Measured values as given in patent US6790936B1, “CAI resistance proteins and uses thereof” (The United States of America as represented by the …, priority 1994, dated 2004).

Experiments:
Assay type in all cases: cell-based, human
[1] = system: A2058 CAI resistant cells; assay: Culture of CAI resistant cells (A2058); settings: chronic culture under continuous CAI, 10, 20, 30 and 40 μM
Description: (§1) Low passage (passage 13) parental human melanoma cells (A2058), and human ovarian cancer cells (OVCAR3) were cultured in Dulbecco's Modified Eagles medium (DMEM) supplemented with 10% fetal calf serum (FCS) and pen/strep (penicillin and streptomycin). Over a period of 24 to 30 months, the cells were incubated with increasing concentrations of CAI starting with 0.1 μM and reaching 45 μM. The CAI, obtained from the Developmental Therapeutics Program of the National Cancer Institute, was dissolved in DMSO and aliquots were stored at −70° C. until used. The diluted CAI was added directly into the media as required. Continuous selective pressure with CAI was maintained throughout culture and was maintained throughout all experiments.
No overt differences in morphology of the A2058 CAI resistant cells was observed.

[2] = system: OVCAR3 cells; assay: Culture of CAI resistant cells (OVCAR3); settings: cells chronically resistant to 10 μM and 20 μM CAI
Description: as §1, with “experiments. OVCAR3 cells chronically resistant to 10 μM and 20 μM CAI were also established.” for “experiments.”

[3] = system: CAIR-1; assay: Northern analysis of CAIR-1 expression in A2058-20R versus parental A2058 cells; settings: A2058-20R (20 μM CAI) vs parental A2058 total RNA, compared to GAPDH housekeeping gene control
Description: The subtracted probe was first hybridized against a Northern blot of total RNA from parental A2058 cells and CAI resistant A2058-20R cells. Increased expression of a number of transcripts was seen (FIG. 1, upper left panel). Re-hybridization of the blot with radiolabeled GAPDH as a housekeeping gene confirmed the […] (FIG. 1, lower left panel).
A cDNA library was constructed from A2058-20R cells by Stratagene (La Jolla, Calif., USA). The library was probed using standard approaches (Id.) and the positive probes were plaque purified. Forty-one clones were selected and 35 were determined to be nonoverlapping by restriction digest. Fifteen were randomly selected for determination of their expression by Northern analysis. Inserts were purified by low melting point agarose gel electrophoresis and then radiolabeled with standard random primer conditions (Amersham, Little Chalfont, Bucks, United Kingdom) and hybridized with a Northern of parental (wildtype) total RNA and RNA from A2058-20R cells. […] The CAIR-1 cDNA (clone 21DBB insert) was sequenced using standard dideoxy-sequencing (SequenaseII kit) with 35S-dATP label. The cDNA sequence is shown in Seq. Id No. 1.

NC(=O)c1nnn(Cc2cc(Cl)c(C(=O)c3ccc(Cl)cc3)c(Cl)c2)c1N [CAI, Carboxyamido-triazole]
growth rate of A2058 CAI resistant cells [1]: not attenuated until the 40 μM treatment in which it decreased somewhat
growth rates of OVCAR3 cells in the CAI treatments [2]: slightly lower growth rates
increased expression of CAIR-1 cDNA (clone 21DBB) in response to culture with CAI [3]: 3.8 fold
